Measurements reported in patent US20080241919A1, “Defined media for pluripotent stem cell culture” (The Burnham Institute of Medical Research, priority 2003, published 2008).

Tests used:
Format in all cases: cell-based
[1] = tested on: human embryonic stem cells (hESCs); test: Short-term proliferation assay (growth rate) of hESCs in defined hESC media; conditions: feeder-free
Procedure: (b) Short-term proliferation assays—assessing cell number. The growth rate of hESCs maintained under the feeder-free condition in the defined hESC media containing 0, 4, 10, 20, 30, or 50 ng/ml bFGF were determined and compared to that of hESCs maintained on laminin/collagen-coated plates in the MEF-conditioned media (MEF-CM) containing 10 ng/ml bFGF (see, for example, Xu, C., et al., Nat. Biotechnol. 19, 971-974 (2001)).
To further assess the effect of bFGF on hESC undifferentiated growth, short-term proliferation assays of hESCs maintained under the feeder-free condition in the defined hESC media containing 0, 4, 10, 20, 30, or 50 ng/ml bFGF were performed. The growth rate (FIG. 1b) and the percentage of undifferentiated colonies (FIG. 1c) in response to bFGF doses were compared to those of hESCs maintained in MEF-conditioned media (MEF-CM) (the latter also actually “spiked” with an additional 10 ng/ml bFGF). […] To further affirm the role of bFGF on hESC undifferentiated growth, hESCs carrying a reporter gene (enhanced green fluorescence protein [EGFP]) under control of Oct-4 promoter were generated (via lentiviral-mediated transduction).

[2] = tested on: human embryonic stem cells (hESCs); test: Undifferentiated growth of hESCs on human foreskin fibroblast (HFF) feeder layer
Procedure: Next, in order to establish a culture system that was free of non-human animal products, the human foreskin fibroblast (HFF) cell line Hs27 was used as a feeder layer. The human foreskin fibroblast (HFF) cell line, Hs27 (ATCC; Manassas, Va.; www.atcc.org) was expanded to create a master bank of frozen cells. The HFFs were plated in gelatin pre-coated 60 mm plates or 6-well plates at a density of 1.7×10^4/cm^2 and inactivated by irradiating at 50 Gy using a ^137Cs gamma-irradiator before being used as feeder cells. Undifferentiated hESCs, although originally maintained on MEFs, were transferred to plates of HFFs that had been mitotically inactivated by gamma irradiation. In the first attempts to transfer the hESCs to the human feeder layers, far more differentiated cells compared to those grown on MEFs were observed. When dealing with hESCs, the undifferentiated state was assessed by three criteria: (a) distinctive and defining stage-specific morphology and size; (b) the expression of immunomarkers associated with pluripotency; and (c) the absence of immunomarkers associated with lineage commitment.
In this media, less than 80% undifferentiated hESC colonies were observed on HFF feeders on every passage.

[3] = tested on: human embryonic stem cells (hESCs); test: Medium component requirement assay, hESCs on laminin/collagen-coated plates for seven days; conditions: media that contained only the named growth factor
Procedure: (a) Media containing bFGF, insulin, and ascorbic acid sustain the healthy undifferentiated growth of hESCs on laminin/collagen-coated plates. Insulin (20 μg/ml), transferrin (8 μg/ml), albumin (for example, the commercial product known as AlbuMAXI) (10 mg/ml), and ascorbic acid (50 μg/ml) were added to a base medium that consisted of 100% DMEM/F-12 with 20 ng/ml bFGF, 2 mM L-alanyl-L-glutamine, 1×MEM essential amino acids solution, 1×MEM non-essential amino acids solution, and 100 μM β-mercaptoethanol. The degree of differentiation was judged by morphology of the colonies and Oct-4 expression. […] (red). […] However, if ascorbic acid was omitted from the media [D, H, L] […] White arrows in all panels delineate the edge of an hESC colony. The area delineated by the white square in [A], [E], and [I] indicates the approximate area that is visualized at higher magnification in [B, C], [F, G], and [J, K], respectively. [C], [G], and [K] is the image in [B], [F], and [J], respectively, merged with DAPI staining of their nuclei (blue).
(b) When either bFGF or insulin was omitted from the media, hESC colonies appeared to differentiate completely under the feeder- and serum-free conditions. […] The distinct growth effects of insulin and bFGF were further accentuated in media lacking ascorbic acid [C, F] (“NO Ascorbic Acid”). In the absence of ascorbic acid and in media that contained only insulin as the growth factor [C] (phase) (“NO Ascorbic Acid”), slower growth of the differentiated hESCs was observed (compare [A, B] to [C]). In ascorbic-acid-lacking media that contained bFGF as the only growth factor [F] […] White arrows in all panels delineate the edge of hESC colonies.
Having determined that substantial numbers of undifferentiated hESCs could be maintained over long periods in feeder-free environments using the bFGF-supplemented media described above, the necessity of other components in the medium to maintain hESCs in an undifferentiated state was next examined. “Knockout Serum Replacement” contains insulin, transferrin, ascorbic acid, amino acids, and AlbuMAX (a chromatographically-purified lipid-rich bovine serum albumin [BSA] with low IgG content, but nevertheless a xeno-derived product). Accordingly, whether insulin, transferrin, BSA, and ascorbic acid were essential components was assessed, in combination with bFGF, for maintaining hESCs in an undifferentiated state. The serum replacement components insulin (20 μg/ml), transferrin (8 μg/ml), albumin (AlbuMAX) (10 mg/ml), and ascorbic acid (50 μg/ml) were added to a base medium that consisted of DMEM/F-12 or KO-DMEM with bFGF (20 ng/ml), L-alanyl-L-glutamine or L-glutamine (2 mM), MEM essential amino acids solution (1×), MEM nonessential amino acids solution (1×), and β-mercaptoethanol (100 μM). To assay for the differentiation-forestalling activity of each of these components, undifferentiated hESCs were seeded on laminin/collagen-coated plates and cultivated for seven days in media containing one or more of the individual components. The degree of differentiation of the colonies was judged by defining morphology and Oct-4 expression.
When either bFGF or insulin was omitted from the media, more than 90% of the colonies appeared to differentiate completely within the first passage, as indicated by their differentiated morphology (FIG. 2b, A,B,D,E), their complete loss of Oct-4 expression, and their expression of the cell surface marker SSEA-1 (FIG. 2c, B,C). […] The different effects of insulin and bFGF were accentuated further in media lacking ascorbic acid. In the absence of ascorbic acid and in media containing only insulin, the growth of differentiated hESCs was simply slower (FIG. 2b, C). […] Although albumin and transferrin are not crucial components for sustaining the undifferentiated growth of hESCs, they might abet survival or maintenance of a normal colony shape.

Substance: bFGF: basic fibroblast growth factor, growth factor added to the defined hESC media
- growth rate of hESCs ([1]; bFGF 10 to 50 ng/ml, compared with MEF-CM): growth rate comparable to that maintained in MEF-CM
- growth of hESCs ([1]; low concentration of bFGF (4 ng/ml), defined media): significantly slow growth
- size of hESC colonies on HFFs ([2]; bFGF increased to 20 ng/ml from 4 ng/ml): significantly larger
- number of passages undifferentiated hESCs maintained on HFF feeder layers ([2]; medium with bFGF 20 ng/ml): more than 50 passages
- time undifferentiated hESCs maintained on HFF feeder layers ([2]; medium with bFGF 20 ng/ml): over 12 months
- undifferentiated hESC colonies on HFF feeders on every passage ([2]; medium with bFGF 20 ng/ml, 20% knockout Serum Replacement): less than 80%
- cell morphology in differentiated colonies [3]: elliptically-shaped cells
